Results: patent US8779092B2, “Metastasis-specific peptides and their diagnostic and therapeutic applications” (Universita Degli Studi di Torino, priority 2006, dated 2014)

Tested on: primary cells of hepatic metastasis
Experiment: Binding experiments on primary cells
Set-up: species or system human
Details: for binding of phage clone to primary hepatic metastasis cells, summary over samples: all tested patient samples; for binding of phage clone to primary hepatic metastasis cells: compared to normal liver of the same patient
Experimental: Samples were processed immediately after surgical removal, in order to disaggregate the tissues and extract single cells on which to perform the experiments. All the manipulations were performed under laminar flux in sterility. Samples were chopped with a scalpel in a small volume of PBS. The suspension, collected in PBS, was centrifuged for 3 minutes at 100 rpm at room temperature and the pellet was resuspended in 5 ml of collagenase (0.25% weight/volume in DMEM). The digestion of the tissue fragments was done incubating this suspension for 2 hours at 37° C. while shaking. The sample was again centrifuged, to eliminate all the particulate under the cell size (lipid aggregates, cell portions) or also smaller cells, of hematopoietic origin. Pellet was washed twice in PBS. Cells were filtered on filters with a diameter of 45 μm, counted in Burker chamber and resuspended at a concentration of 10^6/ml in DMEM/FCS/HEPES.
These assays were performed with an Input of 10^9 TU of each clone, on cells from the hepatic metastasis cell line (target) and on cells from normal liver (negative control). The Output of these experiments was normalized on binding to an insertless phage, fd-tet, giving a measure of the unspecific interaction due to the phage itself. The binding increase was evaluated as ratio between normalized Output of the target and normalized Output of the negative control. All the experiments were repeated at least 3 times, when possible for material availability.
To evaluate if the selected inserts were specific for ubiquitous surface determinants in human hepatic metastases, the 7 selected clones were tested on primary cells of hepatic metastasis, comparing to normal liver of the same patients. For these binding assays, samples from 9 patients were used (20, 21, 22, 25, 26, 27, 28, 31, 32), with the same conditions described for the cell lines.
In the first experiments, due to the low cell numbers, related to the set up phase of the purification procedure, the binding of only some clones was evaluated. In general, 3 assays have been performed for each sample. […] It is interesting to note that, in the experiments on fresh cells, binding increases are much higher than in those performed with the cultured cell lines.

Substance | binding of phage clone to primary hepatic metastasis cells, summary over samples | binding of phage clone to primary hepatic metastasis cells (patient P#27) | binding of phage clone to primary hepatic metastasis cells (patient P#28)
ARPGLRS (listed as Homo sapiens) [SEQ ID NO. 1] | worked on all the samples | – | –
GIYRLRS ((6)..(6) May be fused with GST; listed as Homo sapiens) [SEQ ID NO. 6] | worked on all the samples | – | –
GVYSLRS (listed as Homo sapiens) [SEQ ID NO. 7] | worked on all the samples | – | –
LRPGLRS (listed as Homo sapiens) [SEQ ID NO. 3] | worked on all the samples | – | –
MRYALRS (listed as Homo sapiens) [SEQ ID NO. 2] | – | negative | negative
